Experimental data as given in patent US9907879B2, “Haemostatic composition comprising crystalline polyphosphate” (BK Giulini GMBH, priority 2013, dated 2018).

Columns and labels:
[1] = system: thrombin formation in blood plasma; experiment: Assay for measuring thrombin formation in real-time (thrombogram); format: biochemical; settings: low-thrombocyte plasma; maximum thrombin concentration in thrombogram
Procedure: This method was used to determine the formation of thrombin in blood plasma, triggered in each case by the polyphosphates, in relation to time and to the amounts of polyphosphate used. With the aid of the so-called thrombograms thus obtained, it is possible to draw conclusions concerning the response rate and the extent of thrombin formation. The measurements were carried out in accordance with the instructions from Thrombinoscope BV (manufacturer of the below-mentioned fluorogenic substrate) in a fluorometer (Fluoroscan Ascent, Thermo Scientific) equipped with a dispenser (see F. Müller et al., Cell 2009, 139, 1143-1156 and Supplemental Data). […] Inner filter effects and the substrate consumption were corrected by calibrating each measurement against a fluorescence curve which was determined by means of a mixture of the plasma (80 μl) with a fixed amount of thrombin/α2-macroglobulin complex (Thrombin Calibrator, Thrombinoscope BV). […]
Characteristic of the thrombograms are, in particular, the delay time and the endogenous thrombin potential (ETP). […] ETP refers to the integral of the measured curve of the thrombin concentration. […]
Table 1 below characterizes the investigated phosphates in terms of their water solubility, their chain length, their solid structure and their hemostatic action. Here, water-soluble refers to phosphates having a water solubility of at least 1 g per 100 g of water, as determined by the above-described technique. Here, hemostatic refers to phosphates where the thrombograms, as determined by the above-described technique, have a maximum thrombin concentration of at least 50 nM. As can be clearly read off from Table 1, all the crystalline, water-insoluble polyphosphates according to the invention are notable for a hemostatic action, whereas amorphous, water-soluble polyphosphates and also crystalline mono-, tri- and metaphosphates are not hemostatic.

[2] = Determination of solubility in water; format: physicochemical; settings: distilled water, 20-22° C., shaken 20 min
Procedure: The polyphosphates to be investigated were each weighed out in a 250 ml Erlenmeyer flask (5 g±0.01 g) and admixed with distilled water (50 ml, 20-22° C.). The mixture thus obtained was shaken at 200 revolutions per minute (rpm, rotary movement) for 20 min. Thereafter, the mixture was transferred to a centrifuge tube and centrifuged at 5000 rpm for 20 min. […] The solubility in g per 100 g of water was then obtained from the formula TR×10, where TR represents the determined dry residue in grams.

| SMILES | Hemostatic [1] | Water-soluble [2] |
| --- | --- | --- |
| O=P([O-])([O-])OP(=O)([O-])OP(=O)([O-])[O-].[Na+].[Na+].[Na+].[Na+].[Na+] [Example V1, sodium triphosphate] | No (hemostatic refers to phosphates where the thrombograms, as determined by the above-described technique, have a maximum thrombin concentration of at least 50 nM) | – |
| O=P1([O-])OP(=O)([O-])OP(=O)([O-])O1.[Na+].[Na+].[Na+] [Example V7, sodium trimetaphosphate] | No (hemostatic refers to phosphates where the thrombograms, as determined by the above-described technique, have a maximum thrombin concentration of at least 50 nM) | Yes (water-soluble refers to phosphates having a water solubility of at least 1 g per 100 g of water) |
| O.O.O=P([O-])([O-])O.[Ca+2] [Example V8, dicalcium phosphate dihydrate] | No (hemostatic refers to phosphates where the thrombograms, as determined by the above-described technique, have a maximum thrombin concentration of at least 50 nM) | – |
